Results reported in the supplement of paper PMC10307832.

Legend:
Assay in all cases: relative viability (nuclei count vs DMSO), 5 days (fraction); higher = more cells survive
[1] = compound: C1=CC2=C(C=C(C(=C2N=C1)O)N=NC3=CC4=C(C=C3)C=C(C=C4)S(=O)(=O)O)S(=O)(=O)O + Cc1nc(NC(=O)N2CCC[C@H]2C(N)=O)sc1-c1ccnc(C(C)(C)C(F)(F)F)c1 [Alpelisib] (partner 2 µM)
Summary of the method: (§1)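 Dosing by pin tool came one day after lung cancer cell lines were seeded in 1536-well plates, using either one drug or a fixed anchor-drug dose plus five library-drug doses (not always all listed) in √10 steps. After 5 days, nuclei were counted on 4× images. Relative viability is treated-well nuclei count divided by vehicle-well nuclei count, and values are medians of duplicate plates.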

[2] = compound: C1=CC2=C(C=C(C(=C2N=C1)O)N=NC3=CC4=C(C=C3)C=C(C=C4)S(=O)(=O)O)S(=O)(=O)O + N=C(N)NC(=N)NCCc1ccccc1 [Phenformin] (partner 250 µM)
Summary of the method: as §1

AT-7519 + Alpelisib = compound: O=C(NC1CCNCC1)c1n[nH]cc1NC(=O)c1c(Cl)cccc1Cl [AT-7519] + Cc1nc(NC(=O)N2CCC[C@H]2C(N)=O)sc1-c1ccnc(C(C)(C)C(F)(F)F)c1 [Alpelisib] (partner 2 µM)
Summary of the method: as §1

AT-7519 + Pemetrexed = compound: O=C(NC1CCNCC1)c1n[nH]cc1NC(=O)c1c(Cl)cccc1Cl [AT-7519] + Nc1nc2[nH]cc(CCc3ccc(C(=O)N[C@@H](CCC(=O)O)C(=O)O)cc3)c2c(=O)[nH]1 [Pemetrexed] (partner 0.2 µM)
Summary of the method: as §1

UMC-11
relative viability ([1]; first compound 0.08 µM): 1.12 | relative viability ([1]; first compound 0.253 µM): 0.954 | relative viability ([1]; first compound 0.8 µM): 0.918 | relative viability ([1]; first compound 2.53 µM): 0.88 | relative viability ([1]; first compound 8 µM): 0.824 | relative viability ([2]; first compound 0.08 µM): 0.326 | relative viability ([2]; first compound 0.253 µM): 0.31 | relative viability ([2]; first compound 0.8 µM): 0.336 | relative viability ([2]; first compound 2.53 µM): 0.345 | relative viability ([2]; first compound 8 µM): 0.338 | relative viability (AT-7519 + Alpelisib; first compound 0.01 µM): 0.841 | relative viability (AT-7519 + Alpelisib; first compound 0.03162 µM): 0.94 | relative viability (AT-7519 + Alpelisib; first compound 0.3162 µM): 0.587 | relative viability (AT-7519 + Alpelisib; first compound 1 µM): 0.35 | relative viability (AT-7519 + Pemetrexed; first compound 0.01 µM): 0.807 | relative viability (AT-7519 + Pemetrexed; first compound 0.03162 µM): 0.801 | relative viability (AT-7519 + Pemetrexed; first compound 0.3162 µM): 0.586 | relative viability (AT-7519 + Pemetrexed; first compound 1 µM): 0.331
